pIC50: −log10 of the molar value. Activity calls are given as the source filed them. The rule behind the calls is not given here.
Tests used:
[1] = target: T1, Nitric oxide synthase, inducible (Mus musculus) (UniProt P29477); assay: Inhibition of iNOS-mediated nitric oxide production in LPS-stimulated mouse RAW 264.7 cells treated 2 hrs before LPS challenge measured after 18 hrs by Griess reaction method relative to control; format: cell-based; set-up: concentration or dose not given beside the values; settings: concentration not given here
T1 sequence (whole entry): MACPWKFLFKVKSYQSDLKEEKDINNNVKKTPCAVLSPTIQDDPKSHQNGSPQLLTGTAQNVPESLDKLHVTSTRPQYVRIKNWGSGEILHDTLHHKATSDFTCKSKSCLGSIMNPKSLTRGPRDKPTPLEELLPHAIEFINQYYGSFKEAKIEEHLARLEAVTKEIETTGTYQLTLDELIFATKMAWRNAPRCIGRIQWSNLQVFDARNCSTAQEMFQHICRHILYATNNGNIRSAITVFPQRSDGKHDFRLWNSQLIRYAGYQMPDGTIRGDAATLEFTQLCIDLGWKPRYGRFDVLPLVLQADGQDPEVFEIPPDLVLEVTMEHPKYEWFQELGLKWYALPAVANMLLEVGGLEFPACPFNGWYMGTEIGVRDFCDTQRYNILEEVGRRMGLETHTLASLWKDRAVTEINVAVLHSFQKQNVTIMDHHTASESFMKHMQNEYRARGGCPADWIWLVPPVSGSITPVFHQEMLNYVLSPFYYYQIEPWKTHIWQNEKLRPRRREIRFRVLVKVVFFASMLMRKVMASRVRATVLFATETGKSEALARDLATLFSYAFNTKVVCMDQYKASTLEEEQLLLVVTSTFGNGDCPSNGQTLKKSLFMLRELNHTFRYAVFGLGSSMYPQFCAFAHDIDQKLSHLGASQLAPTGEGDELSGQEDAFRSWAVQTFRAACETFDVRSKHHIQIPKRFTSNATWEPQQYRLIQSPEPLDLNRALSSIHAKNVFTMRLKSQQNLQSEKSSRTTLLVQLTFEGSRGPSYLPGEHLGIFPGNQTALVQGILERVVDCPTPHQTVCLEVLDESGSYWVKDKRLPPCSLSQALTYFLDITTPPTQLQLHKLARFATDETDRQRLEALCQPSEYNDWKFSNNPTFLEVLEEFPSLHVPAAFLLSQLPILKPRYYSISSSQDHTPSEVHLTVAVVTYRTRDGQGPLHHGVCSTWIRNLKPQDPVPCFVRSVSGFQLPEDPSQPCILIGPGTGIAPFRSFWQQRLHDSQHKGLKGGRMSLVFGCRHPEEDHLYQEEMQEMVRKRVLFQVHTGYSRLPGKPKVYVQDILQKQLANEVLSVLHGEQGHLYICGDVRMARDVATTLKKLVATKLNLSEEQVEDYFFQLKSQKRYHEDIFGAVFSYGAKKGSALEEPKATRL

[2] = target: T2, Nitric oxide synthase, inducible (Mus musculus, UniProt P29477)
T2 sequence (P29477 whole entry): T1 sequence (whole entry)

[3] = target: T2, Nitric oxide synthase, inducible; remark: listed apart in the source
Description: Inhibition of iNOS in LPS-stimulated mouse RAW 264.7 cells after 2 hrs by fluorescence plate reader analysis

[4] = tested on: RAW264.7; assay: cells; settings: Mus musculus, RAW264.7, 24 h
Description: Cytotoxicity against mouse RAW264.7 cells after 24 hrs by MTT assay

[5] = tested on: RAW264.7; assay: Cytotoxicity against LPS-stimulated mouse RAW264.7 cells after 24 hrs by MTT assay; format: cell-based; settings: RAW264.7, 24 h
[6] = target: T3, Prostaglandin G/H synthase 2 (Mus musculus, UniProt Q05769); assay: Inhibition of COX2-mediated PGE2 production in LPS-stimulated mouse RAW 264.7 cells after 24 hrs by ELISA; format: cell-based
T3 sequence (Q05769 whole entry): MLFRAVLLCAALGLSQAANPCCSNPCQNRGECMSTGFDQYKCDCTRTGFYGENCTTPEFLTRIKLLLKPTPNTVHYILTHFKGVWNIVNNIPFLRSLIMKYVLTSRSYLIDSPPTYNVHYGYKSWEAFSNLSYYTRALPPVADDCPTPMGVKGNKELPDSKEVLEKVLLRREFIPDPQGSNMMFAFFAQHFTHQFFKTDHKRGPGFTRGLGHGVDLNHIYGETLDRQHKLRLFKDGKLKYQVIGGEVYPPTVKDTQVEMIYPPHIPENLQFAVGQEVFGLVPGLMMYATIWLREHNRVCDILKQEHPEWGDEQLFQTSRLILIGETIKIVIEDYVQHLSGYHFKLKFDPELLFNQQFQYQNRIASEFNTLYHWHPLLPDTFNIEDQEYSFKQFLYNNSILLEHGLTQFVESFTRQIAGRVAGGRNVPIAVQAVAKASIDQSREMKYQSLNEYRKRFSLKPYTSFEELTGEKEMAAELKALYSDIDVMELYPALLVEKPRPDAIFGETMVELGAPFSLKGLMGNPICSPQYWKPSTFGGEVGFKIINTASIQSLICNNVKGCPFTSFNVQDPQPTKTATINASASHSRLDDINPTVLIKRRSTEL

[7] = tested on: Rattus norvegicus; assay: Antiarthritic activity in heat-killed mycobacterium tuberculosis-induced Lewis rat arthritis model assessed as leukocytes infiltreated into synovial tissue and synovial fluid of joints at 50 mg/kg, po QD for 28 using hematoxylin and eosin staining by microscopic analysis; format: functional, organism-based; set-up: dose 50 mg/kg
[8] = tested on: Rattus norvegicus; assay: AUC (0 to t) in Sprague-Dawley rat at 50 mg/kg, po; format: ADME, organism-based, Plasma; set-up: dose 50 mg/kg, route oral; settings: in vivo
[9] = tested on: Rattus norvegicus; assay: AUC (0 to t) in Sprague-Dawley rat at 10 mg/kg, iv; format: ADME, organism-based, Plasma; set-up: dose 10 mg/kg, route intravenous; settings: in vivo
[10] = Half life in Sprague-Dawley rat at 10 mg/kg, iv; format: ADME, organism-based; set-up: dose 10 mg/kg, route intravenous; settings: in vivo
[11] = Half life in Sprague-Dawley rat at 50 mg/kg, po; format: ADME, organism-based; set-up: dose 50 mg/kg, route oral; settings: in vivo
[12] = tested on: Mus musculus; assay: Antiinflammatory activity against acetic acid-induced vascular permeability in ICR mouse assessed as evans blue peritoneal leakage at 10 to 50 mg/kg, ip administered 30 mins before acetic acid challenge measured after 50 mins; format: functional, organism-based
[13] = Tmax in Sprague-Dawley rat at 50 mg/kg, po; format: ADME, organism-based; set-up: dose 50 mg/kg, route oral; settings: in vivo
[14] = Cmax in Sprague-Dawley rat at 50 mg/kg, po; format: ADME, organism-based; set-up: dose 50 mg/kg, route oral; settings: in vivo
[15] = tested on: Rattus norvegicus; assay: Antiarthritic activity in heat-killed mycobacterium tuberculosis-induced Lewis rat arthritis model assessed as increase in boy weight at 50 mg/kg, po QD for 28 relative to control; format: functional
[16] = Tmax in Sprague-Dawley rat at 10 mg/kg, iv; format: ADME, organism-based; set-up: dose 10 mg/kg, route intravenous; settings: in vivo
[17] = tested on: RAW264.7; assay: Inhibition of LPS-induced iNOS protein expression in mouse RAW264.7 cells treated 2 hrs before LPS challenge measured after 18 hrs by Western blotting; format: functional, cell-based
[18] = Cmax in Sprague-Dawley rat at 10 mg/kg, iv; format: ADME, organism-based; set-up: dose 10 mg/kg, route intravenous; settings: in vivo
[19] = Oral bioavailability in Sprague-Dawley rat at 50 mg/kg; format: ADME, organism-based; settings: in vivo
[20] = tested on: Mus musculus; assay: Antiinflammatory activity in ICR mouse assessed as inhibition of carrageenan-induced paw edema at 50 mg/kg, po administered 30 mins before carrageenan challenge measured up to 5 hrs; format: functional
[21] = tested on: Mus musculus; assay: Antiinflammatory activity in ICR mouse assessed as inhibition of carrageenan-induced paw edema at 10 mg/kg, po administered 30 mins before carrageenan challenge measured up to 5 hrs; format: functional
[22] = tested on: RAW264.7; assay: Inhibition of LPS-induced COX2 protein expression in mouse RAW264.7 cells at 12 to 24 uM treated 2 hrs before LPS challenge measured after 18 hrs by Western blotting; format: functional, cell-based
[23] = tested on: Rattus norvegicus; assay: Antiarthritic activity in heat-killed mycobacterium tuberculosis-induced Lewis rat arthritis model assessed as decrease in arthritic score at 50 mg/kg, po QD for 28; format: functional, organism-based; set-up: dose 50 mg/kg
[24] = species: Mus musculus; settings: ICR, 10 mg/kg
Description: Antiinflammatory activity against acetic acid-induced vascular permeability in ICR mouse assessed as evans blue peritoneal leakage at 10 mg/kg, ip administered 30 mins before acetic acid challenge measured after 50 mins

O=C(COc1ccc(/C=C2\SC(=O)NC2=O)cc1)Nc1ccc(Cl)cc1
inhibition [1]: 9.7%

O=C(COc1ccc(/C=C2\SC(=O)NC2=O)cc1)Nc1cccc(F)c1
inhibition [1]: 41.5%

CC(=O)c1ccc(NC(=O)COc2ccc(/C=C3\SC(=O)NC3=O)cc2)cc1
inhibition [1]: 10.2%

O=C(COc1ccc(/C=C2\SC(=O)NC2=O)cc1)NC1CCCCC1
inhibition [1]: 47.8%

Cc1ccc(NC(=O)COc2ccc(/C=C3\SC(=O)NC3=O)cc2)cc1
inhibition [1]: 38.4%

O=C(COc1ccc(/C=C2\SC(=O)NC2=O)cc1)Nc1cccc2ccccc12
pIC50 [2]: 4.68
inhibition [1]: 70.9%
pIC50 [3]: 4.40
pIC50 [4]: 4.21
pIC50 [5]: 4.26
pIC50 [6]: 4.79

O=C(COc1ccc(/C=C2\SC(=O)NC2=O)cc1)Nc1ccc(F)c(Cl)c1
inhibition [1]: 36%

O=C(COc1ccc(/C=C2\SC(=O)NC2=O)cc1)Nc1ccccn1
inhibition [1]: 14.6%

O=C(COc1ccc(/C=C2\SC(=O)NC2=O)cc1)Nc1cccc(Cl)c1
pIC50 [2]: 5.06
Activity [7]: Active
AUC [8]: 10 uM.hr/L
inhibition [1]: 80.9%
AUC [9]: 11.05 uM.hr/L
pIC50 [3]: 4.63
half-life [10]: 16.8 min
half-life [11]: 130 min
inhibition [12]: inactive
Tmax [13]: 10.8 min
pIC50 [4]: < 4.00
Cmax [14]: 15.3 µM
pIC50 [5]: < 4.00
Activity [15]: 15.1%
Tmax [16]: 4.8 min
inhibition [17]: Dose-dependent effect
Cmax [18]: 27 µM
bioavailability [19]: 18.1%
pIC50 [6]: 5.38
inhibition in vivo at 50 mg/kg [20]: 36.2%
inhibition [21]: Active
inhibition in vivo at 10 mg/kg [21]: 33.3%
inhibition [22]: Active

O=C(COc1ccc(/C=C2\SC(=O)NC2=O)cc1)Nc1ccc2ccccc2c1
inhibition [1]: 45.1%

COc1ccc(NC(=O)COc2ccc(/C=C3\SC(=O)NC3=O)cc2)cc1
inhibition [1]: 0.6%

O=C(COc1ccc(/C=C2\SC(=O)NC2=O)cc1)Nc1ccc(C(F)(F)F)cc1
inhibition [1]: 26.6%

O=C(COc1ccc(/C=C2\SC(=O)NC2=O)cc1)Nc1ccc(F)cc1
inhibition [1]: 57.9%

O=C(COc1ccc(/C=C2\SC(=O)NC2=O)cc1)NCc1ccccc1
inhibition [1]: 41.6%

COc1ccc(NC(=O)COc2ccc(/C=C3\SC(=O)NC3=O)cc2)cc1OC
inhibition [1]: 16.2%

O=C(COc1ccc(/C=C2\SC(=O)NC2=O)cc1)Nc1ccc(Br)cc1
inhibition [1]: 23.7%

O=C(COc1ccc(/C=C2\SC(=O)NC2=O)cc1)Nc1ccc(F)c(F)c1
pIC50 [2]: 4.86
inhibition [1]: 83.9%
pIC50 [3]: 4.47
pIC50 [4]: < 4.00
pIC50 [5]: < 4.00
pIC50 [6]: 5.15

O=C(COc1ccc(/C=C2\SC(=O)NC2=O)cc1)Nc1ccc(Cl)cc1Cl
inhibition [1]: 10%

COc1ccc2c(c1)c(CC(=O)O)c(C)n2C(=O)c1ccc(Cl)cc1 [INDOMETHACIN]
inhibition [1]: 63.2%
pIC50 [4]: < 4.00
pIC50 [5]: < 4.00
Activity [23]: Active
inhibition [24]: Active

CN(C(=O)COc1ccc(/C=C2\SC(=O)NC2=O)cc1)c1ccccc1
inhibition [1]: 51%

Cc1ccc(NC(=O)COc2ccc(/C=C3\SC(=O)NC3=O)cc2)nc1
inhibition [1]: 12.5%

O=C(COc1ccc(/C=C2\SC(=O)NC2=O)cc1)Nc1ccccc1
inhibition [1]: 55.3%

O=C(COc1ccc(/C=C2\SC(=O)NC2=O)cc1)Nc1cc(Cl)cc(Cl)c1
pIC50 [2]: 4.58
inhibition [1]: 72%
pIC50 [3]: 4.24
pIC50 [4]: < 4.00
pIC50 [5]: < 4.00
pIC50 [6]: 4.83

From ChEMBL document CHEMBL1765006, “Synthesis and biological evaluation of novel 5-benzylidenethiazolidine-2,4-dione derivatives for the treatment of inflammatory diseases” (J Med Chem, 2011)
